Data on four molecules can be found in patent US6455578B1, “Aromatic derivatives and iron complexes thereof for the use as normalizing agents of the iron level” (Laboratoire Medidom S.A., priority 1998, dated 2002).

The nature of series [1]: Partition test between n-octanol and aqueous solution pH 7.4. Format: physicochemical. The following applies: for partition between n-octanol and aqueous solution (result in words): n-octanol / aqueous 20 mM tris(hydroxymethyl)aminomethane chlorhydrate pH 7.4, Example 7: concentration 100 mM. Here is the method:
In particular, partition experiments have been carried out between n-ottanol and an aqueous solution 20 mM of tris(hydroxymethyl)aminomethane chlorohydrate brought to pH=7.4 by adding sodium phosphate, obtaining values of the ripartition coefficient, expressed as the ratio between the concentration of the compound in the organic phase and that in the aqueous phase, tipically higher than 20, for the present formula (I) compounds as well as for the Fe (III) complexes thereof.
The partition coefficient between n-octanol and an aqueous solution 20 mM of tris(hydroxymethyl)aminomethane brought to pH=7.4 by the addition of sodium phosphate has been determined by spectrophotometry at room temperature for 3-hydroxy-2-methyl-4H-1-benzopyran-4-one and for the related Fe(III) complex.
In the aqueous solution the 3-hydroxy-2-methyl-4H-1-benzopyran-4one obtained as described in Example 1 was dissolved in the quantity sufficient to have a concentration equal to 10^−4 M. 5 ml of said solution were centrifuged with 5 ml of n-octanol, and the two resulting phases were separated for a concentration determination on each by spectrophotometry.
The partition coefficient, expressed as the ratio between the concentration of the compound in n-octanol and its concentration in the aqueous solution, resulted 24. In the same aqueous solution above described the Fe(III) complex obtained as in Example 4 was dissolved, in the sufficient quantity to obtain a concentration equal to 2×10^−4 M. 5 ml of said solution are centrifuged with 5 ml of n-octanol, then the two resulting phases were separated for a concentration determination on each by spectrophotometry. A partition coefficient equal to 25 was obtained.
According to the procedure described in Example 6 partition data were determined between n-octanol and an aqueous solution 20 mM of tris(hydroxymethyl)aminomethane chlorhydrate brought to pH 7.4 by addition of sodium phosphate, for 3-hydroxy-2-(5-hydroxypentyl)-4H-1-benzopyran-4-one prepared as in Example 3 as well as for the related Fe(III) complex prepared as in Example 5.
In the aqueous solution 3-hydroxy-2-(5-hydroxypentyl)-4H-1-benzopyran-4-one as prepared in Example 3 was dissolved so to obtain a concentration equal to 100 mM. 5 ml of said solution were centrifuged with 5 ml of n-octanol, then the two resulting phases, the aqueous and the organic one, were separated for a concentration determination on each by spectrophotometry.
The same experiment was repeated by dissolving the Fe(III) complex prepared as in Example 5 in the above described aqueous solution.

The next series relates to erythrocytes. The experiment in a line: In vitro tests on permeation into erythrocytes. Format: in vitro ADME, rat. The following applies: for found in the aqueous medium containing the phosphate buffer after resuspension of loaded erythrocytes: loaded erythrocytes resuspended in fresh buffer; for found in the aqueous medium containing the phosphate buffer after resuspension of loaded erythrocytes / found in the plasmatic medium after resuspension of loaded erythrocytes / distribution between previously overloaded erythrocytes and the aqueous medium of resuspension: further 30 minutes at 37 C; for found in the plasmatic medium after resuspension of loaded erythrocytes: loaded erythrocytes resuspended in their plasma; for distribution between previously overloaded erythrocytes and the aqueous medium of resuspension: loaded erythrocytes resuspended in fresh plasma or fresh buffer; for time in which a balance between intracellular and extracellular environment is reached: rat erythrocytes. Here is the method:
Solutions of 3-hydroxy-2-methyl-4H-1-benzopyran-4-one prepared as in Example 1 and the related Fe(III) complex obtained in acetone as in Example 4 were used for suitable sampling in incubation flasks. For the complex acetone is evaporated, and the biologic samples are then added to the residue. Whole blood of rat deprived of leucocytes, or alternatively erythrocytes washed and resuspended in 127 mM of sodium phosphate 50% buffer (pH=7.4) and containing 23 mM of NaCl, were added into the incubation flasks and incubated at 37° C. for 15 and respectively 30 minutes.
At those times erythrocytes were separeted by centrifugation and separately extracted together with the supernatants with 2 volumes of ethyl acetate. The related quantities of the tested substances were measured by spectrophotometry in ethyl acetate and compared with suitable standards. After 30 minutes of incubation the 3-hydroxy-2-methyl-4H-1-benzopyran-4-one as well as the related Fe(III) complex were found in the erythrocytes for 51% and for 49% in the aqueous medium. After 30 minutes of incubation 50% of the sedimented erythrocytes are resuspended in their fresh plasma and the remaining 50% in fresh buffer.
Erhytrocytes of rat were separated from their plasma deprived of leucocytes. Part of the erythrocytes were resuspended in sodium phosphate 50% buffer (pH=7.4), and another part of the erythrocytes were joined to part of their plasma so to obtained a 50% hematocrit. To both suspensions were added alternatively 100 mg/l of 3-hydroxy-2-(5-hydroxypentyl)-4H-benzopyran-4-one prepared as in Example 3 and 50 mg/l of the related Fe(III) complex prepared as in Example 5, and the incubation was made at 37° C. After 30 minutes the erythrocytes were separated by centrifugation and extracted separately together with supernatants with ethyl acetate. The quantities of the tested substances were measured by spectrophotometry in ethyl acetate and compared to suitable standards.
After 30 minutes incubation the 40% of 3-hydroxy-2-(5-hydroxypenthyl)-4H-1-benzopyran-4-one, as well as of the ferric complex thereof, were found in the erythrocytes and the remaining 60% in the medium represented by plasma. When the medium is the phosphate buffer the 60% of the tested compounds were found in erythrocytes and the remaining 40% in the medium.
After sedimentation 50% of the erythrocytes containing the tested compounds was resuspended in their plasma and the remaining 50% in fresh buffer. After a further 30 minutes incubation at 37° C. 60% of 3-hydroxy-2-(5-hydroxypentyl)-4H-1-benzopyran-4-one and of the related complex were found in the plasmatic medium and the remaining 40% in the aqueous medium containing the phosphate buffer. Therefore the chelating agent as well as the related ferric complex do permeate into cellular membranes in both directions, and are uniformly distributed in the intracellular and in the extracellular environment.

A short description of series [2]: In vivo tests on permeation of rat erythrocytes / detection in rat tissues and excretion. The following applies: for Qualitative detection in Erythrocytes / Qualitative detection in Plasma / Qualitative detection in Brain / Qualitative detection in Liver / Qualitative detection in Urine: rat, single oral dose 20 mg per Kg. Here is the method: The tests are performed on male rats Sprague-Dawley weighting from 250 to 300 g.
The chelating agent 3-hydroxy-2-methyl-4H-1-benzopyran-4-one prepared as in Example 1, vehiculated by 4 parts of β-cyclodextrine for each part of chelating agent, is administered to the rats in a single oral dose comprising 20 mg of chelating agent per Kg of body weight.
The chelating agent 3-hydroxy-2-(5-hydroxypentyl)-4H-1-benzopyran-4-one prepared as in Example 3 is administered to the rats in a single oral dose, comprising 2% of methyl cellulose and 20 mg of chelating agent per Kg of body weight.

The nature of series [3]: Stability constant of the Fe(III) complex by cyclic voltammetry. It is filed as physicochemical. Here is the method:
wherein R5 is CH3, has been measured by voltammetry with a Pt electrode as the working electrode and with a calomel electrode as the reference electrode, obtaining a stability constant equal to 3.0×10^10.
The complexation cynetics has been moreover studied by cyclic voltammetry with a Pt electrode as the working electrode and a calomel electrode as the reference electrode, in the following conditions:ferric perchlorate (7 mg) is dissolved in 20 ml of a NaCl solution 150 mM containing 5% of DMSO, and this solution is put into the voltammetric cell for the plot registration; from this plot the half-wave potential for the ferric salt can be deduced: (E½)s Fe^3+/Fe^2+=0.420 V.
3-hydroxy-2-methyl-4H-1-benzopyran-4-one (10.5 mg) is dissolved in DMSO (3 ml), and with the so obtained solution 4 additions are made to the voltammetric cell, registering the cyclic voltammetric plot after every addition. […]
The stability constant of the complex is calculated according to the following formula: [formula]
wherein (E½)s e (E½)c are the half-wave potential of the salt and, respectively, of the complex above reported, n is the number of electrons, β is the stability constant of the complex and c is its concentration, and p is the number of chelating agent molecules in the complex. The so calculated value of the stability constant is […].

A short description of series [4]: In vivo tests on permeation of rat erythrocytes / detection in rat tissues and excretion. The note with it: rats, 20 mg per Kg in DMSO by intraperitoneal route; 15, 30 and 60 minutes after treatment.
Setting [5] is: medium phosphate buffer pH 7.4, 37 C, 30 minutes, 100 mg/l ligand or 50 mg/l complex.
[6] abbreviates: medium plasma, 50% hematocrit, 37 C, 30 minutes, 100 mg/l ligand or 50 mg/l complex.
Setting [7] is: rat whole blood deprived of leucocytes or washed erythrocytes in phosphate buffer pH 7.4, 37 C, 30 minutes incubation.
The mark [8] stands for this setting: male Sprague-Dawley rats, single oral dose 20 mg per Kg with beta-cyclodextrine.

Turning to “Fe(III) complex of 3-hydroxy-2-(5-hydroxypentyl)-4H-1-benzopyran-4-one”, the “partition between n-octanol and aqueous solution (result in words)” value in series [1] is on record as “completely pass in the alcoholic phase”. In the series with erythrocytes, the “found in the aqueous medium containing the phosphate buffer after resuspension of loaded erythrocytes” value was determined as 40% and the “found in the plasmatic medium after resuspension of loaded erythrocytes” value was 60%. For the same molecule, in the series with erythrocytes (setting [5]), the found in erythrocytes is 60% and the “found in the medium” value was determined as 40%. In addition, in the series with erythrocytes (setting [6]), the “found in the erythrocytes” value is on record as 40% and the “found in the medium” value came to 60%.

What is called melting point is the temperature of the solid-liquid transition. For `Cc1oc2ccccc2c(=O)c1O` [3-hydroxy-2-methyl-4H-1-benzopyran-4-one], the melting point was in the range of 179 to 180 °C. Besides, in series [1] (n-octanol / aqueous 20 mM tris(hydroxymethyl)aminomethane pH 7.4, room temperature, spectrophotometry, ligand 10^-4 M, complex 2x10^-4 M, read-out: partition coefficient (concentration in n-octanol / concentration in aqueous solution) (converted)), the logD was 1.38. Also, in the series on erythrocytes, the “distribution between previously overloaded erythrocytes and the aqueous medium of resuspension” value was “equally distributed”. The “time in which a balance between intracellular and extracellular environment is reached” value in the series with erythrocytes (37 C) is reported as “ca. 30 minutes”. In the series with erythrocytes (setting [7]), the “found in the aqueous medium” value was found to be 49% and the “found in the erythrocytes” value is listed as 51%. In addition, in series [2] (setting [8]), the “presence in urine (onset)” value was “starting from twenthyfourth hour”; the “time of maximum presence (erythrocytes, brain and liver)” value is “maximum in the fourth hour”. Also, the “presence in erythrocytes, brain and liver (first detection)” value in series [2] (male Sprague-Dawley rats, single oral dose 20 mg per Kg with beta-cyclodextrine, spectrophotometry and fluorimetry) is given as “found already in the first hour”. In addition, in series [2] (1/2 hr after administration), the “Qualitative detection in Erythrocytes” value is given as “p(+)” and the “Qualitative detection in Plasma” value was “p(+)”. Also, in series [2] (1 hr after administration), the “Qualitative detection in Brain” value was “p(+)”, the “Qualitative detection in Erythrocytes” value is given as “p(++)”, the “Qualitative detection in Liver” value is on record as “p(+)” and the “Qualitative detection in Plasma” value is listed as “p(++)”. In series [2] (4 hr after administration), the “Qualitative detection in Brain” value is reported as “p(++)”, the “Qualitative detection in Erythrocytes” value is recorded as “p(+++)”, the “Qualitative detection in Liver” value is reported as “p(+++)” and the “Qualitative detection in Plasma” value was “p(++)”. Moreover, the “Qualitative detection in Urine” value in series [2] (4 hr after administration) is “p(+)”. In series [2] (24 hr after administration), the “Qualitative detection in Brain” value is given as “p(++)”, the “Qualitative detection in Liver” value is “p(++)” and the “Qualitative detection in Urine” value was “p(++)”. Further, the “Qualitative detection in Urine” value in series [2] (48 hr after administration) is listed as “p(+++)”.

In the case of “Fe(III) complex of 3-hydroxy-2-methyl-4H-1-benzopyran-4-one”, the “half-wave potential of the complex (E1/2) Fe3+/Fe2+” value in series [3] (cyclic voltammetry, after first addition of 0.5 ml chelating agent solution in DMSO) is reported as 0.120 V. The “stability constant of the Fe(III) complex” value in series [3] (voltammetry, Pt working electrode, calomel reference electrode, NaCl 150 mM containing 5% DMSO) is given as 3.0×10^10. For the same molecule, the “partition coefficient (concentration in n-octanol / concentration in aqueous solution)” value in series [1] (n-octanol / aqueous 20 mM tris(hydroxymethyl)aminomethane pH 7.4, room temperature, spectrophotometry, ligand 10^-4 M, complex 2x10^-4 M) is given as 25. In addition, in the series with erythrocytes, the “distribution between previously overloaded erythrocytes and the aqueous medium of resuspension” value is “equally distributed”. Also, the “time in which a balance between intracellular and extracellular environment is reached” value in the series on erythrocytes (37 C) is reported as “ca. 30 minutes”. Also, in the series on erythrocytes (setting [7]), the “found in the aqueous medium” value is 49% and the “found in the erythrocytes” value is 51%.

`O=c1c(O)c(CCCCCO)oc2ccccc12` [3-hydroxy-2-(5-hydroxypentyl)-4H-1-benzopyran-4-one] had a melting point of 111 to 112 °C. In addition, in series [1], the “partition between n-octanol and aqueous solution (result in words)” value is “completely pass in the alcoholic phase”. In the series on erythrocytes, the “found in the aqueous medium containing the phosphate buffer after resuspension of loaded erythrocytes” value was found to be 40% and the “found in the plasmatic medium after resuspension of loaded erythrocytes” value was determined as 60%. Also, in the series on erythrocytes (setting [5]), the found in erythrocytes worked out at 60% and the “found in the medium” value is on record as 40%. Also, in the series with erythrocytes (setting [6]), the “found in the erythrocytes” value worked out at 40% and the “found in the medium” value is listed as 60%. Further, the presence in urine result in series [2] (male Sprague-Dawley rats, single oral dose 20 mg per Kg in 2% methyl cellulose, 12, 24 and 48 hours from administration) is “has been revealed”. In series [2] (rats, 20 mg per Kg in DMSO by intraperitoneal route, 15, 30 and 60 minutes after treatment), the presence in plasma entry was “has been revealed”. The presence in erythrocytes entry in series [4] is listed as “has been revealed”.
